From patent publication US8329658B2, “Arylalkyl and heteroarylalkyl derivatives of cyclosporine A for the treatment and prevention of viral infection” (Scynexis, Inc., priority 2005, dated 2012)
pEC50, pIC50: −log10 of the molar value.

Legend:
HIV-1IIIB = experiment: HIV MTS cytoprotection assay in CEM-SS cells; format: cell-based, human immunodeficiency virus-1 (HIV); details: concentration inhibiting virus replication by 50%, 6 days post-infection, NS is no significant activity
Method: (§1) The compounds of the present invention were tested for antiretroviral activity against human immunodeficiency virus-1 (HIV) using infection of the human T-lymphoblastoid cell line, CEM-SS, with the HIV strain HIV-1IIIB (Weislow et al., 1989, J. Natl. Cancer Inst. 81, 577-586). In this MTS cytoprotection assay, each experiment included cell control wells (cells only), virus control wells (cells plus virus), drug toxicity wells (cells plus drug only), drug colorimetric control wells (drug only) as well as experimental wells (drug plus cells plus virus). Compounds were first dissolved in DMSO and tested using six half-log dilutions, starting with a high concentration of either 20 or 2 μM. […] was added to each well in a volume of 50 μL, the amount of virus determined to give approximately 90% cell killing at 6 days post-infection. At assay termination, assay plates were stained with the soluble tetrazolium-based dye MTS (CellTiter 96 Reagent, Promega) to determine cell viability and quantify compound toxicity. MTS is metabolized by the mitochondria enzymes of metabolically active cells to yield a soluble formazan product, providing a quantitative analysis of cell viability and compound cytotoxicity. The assay was validated in parallel experiments using Zidovudine (3′-azido-3′-deoxythymidine or AZT) as a positive control. The assay included determinations of compound EC50 (concentration inhibiting virus replication by 50%), IC50 (concentration resulting in 50% inhibition of cell growth) and a selectivity index (IC50/EC50).

[1] = tested on: human hepatoma cell line ET (lub ubi neo/ET); experiment: Cytotoxicity (colorimetric cell number assay) in HCV replicon ET cell line; details: for pIC50: read-out: Cytotoxicity IC50, concentration inhibiting cell viability by 50%, ET cells, 72 hours; for IC90: read-out: Cytotoxicity IC90, concentration inhibiting cell viability by 90%, ET cells, 72 hours
Text: (§2) Compounds were examined in the human hepatoma cell line ET (lub ubi neo/ET), a HCV RNA replicon containing a stable luciferase (LUC) reporter. The HCV RNA replicon ET contains the 5′ end of HCV (with the HCV Internal Ribosome Entry Site (IRES) and the first few amino acids of the HCV core protein) which drives the production of a firefly luciferase (LUC), ubiquitin, and neomycin phosphotransferase (NeoR) fusion protein. Ubiquitin cleavage releases the LUC and NeoR proteins. The EMCV IRES element controls the translation of the HCV […] NS3-NS5. The NS3 protein cleaves the HCV polyprotein to release the mature NS3, NS4A, NS4B, NS5A and NS5B proteins that are required for HCV replication. At the 3′ end of the replicon is the authentic 3′ NTR of HCV. The activity of the LUC reporter is directly proportional to HCV replication levels and positive-control antiviral compounds produce a reproducible antiviral response using the LUC endpoint.
(§3) The compounds were dissolved in DMSO at five half-log concentrations each, ranging from either 0.02 to 2 μM or 0.2 to 20 μM. Subconfluent cultures of the ET line were plated out into 96 well plates dedicated for the analysis of cell numbers (cytotoxicity) or antiviral activity and the next day the compounds were added to the appropriate wells. […] Compound EC50 and EC90 values were derived from HCV RNA levels assessed as HCV RNA replicon derived LUC activity. […] Compound IC50 and IC90 values were calculated using a colorimetric assay as an indication of cell numbers and cytotoxicity. The activity of the LUC reporter is directly proportional to HCV RNA levels in the human cell line. The HCV-replicon assay was validated in parallel experiments using interferon-alpha-2b as a positive control.

[2] = tested on: human T-lymphoblastoid cell line, CEM-SS; experiment: Cytotoxicity (MTS) in CEM-SS cells; format: cell-based; details: concentration resulting in 50% inhibition of cell growth
Method: as §1

HCV RNA replicon ET = experiment: HCV RNA replicon luciferase (LUC) reporter assay in ET cell line; format: cell-based; details: replicon LUC activity, ET cells, 72 hours; for pEC50: concentration reducing viral replication by 50%; for EC90: concentration reducing viral replication by 90%
Text: as §2, §3

Molecule	pEC50 (HIV-1IIIB)	pIC50 [1]	IC90 [1] [nM]	pIC50 [2]	pEC50 (HCV RNA replicon ET)	EC90 (HCV RNA replicon ET) [nM]
3-benzyloxycyclosporin [Compound B]	6.23	4.70	> 20000	< 4.70	6.59	590
C/C=C/C[C@@H](C)[C@@H](O)[C@H]1C(=O)N[C@@H](CC)C(=O)N(C)C(OCc2cccs2)C(=O)N(C)[C@@H](CC(C)C)C(=O)N[C@@H](C(C)C)C(=O)N(C)[C@@H](CC(C)C)C(=O)N[C@@H](C)C(=O)N[C@H](C)C(=O)N(C)[C@@H](CC(C)C)C(=O)N(C)[C@@H](CC(C)C)C(=O)N(C)[C@@H](C(C)C)C(=O)N1C (stereo partly drawn) [C, 3-[(thiophene-2-yl)methoxy]cyclosporin]	6.05	4.96	> 20000	< 4.70	6.46	1260
CC=CCC(C)C(O)C1C(=O)NC(CC)C(=O)N(C)C(SCc2ccccc2)C(=O)N(C)C(CC(C)C)C(=O)NC(C(C)C)C(=O)N(C)C(CC(C)C)C(=O)NC(C)C(=O)NC(C)C(=O)N(C)C(CC(C)C)C(=O)N(C)C(CC(C)C)C(=O)N(C)C(C(C)C)C(=O)N1C (stereo not drawn) [Compound A, 3-benzylthiocyclosporin]	6.28	4.70	> 20000	< 4.70	6.14	1840
C/C=C/C[C@@H](C)[C@@H](O)[C@H]1C(=O)N[C@@H](CC)C(=O)N(C)C(OCc2ccoc2)C(=O)N(C)[C@@H](CC(C)C)C(=O)N[C@@H](C(C)C)C(=O)N(C)[C@@H](CC(C)C)C(=O)N[C@@H](C)C(=O)N[C@H](C)C(=O)N(C)[C@@H](CC(C)C)C(=O)N(C)[C@@H](CC(C)C)C(=O)N(C)[C@@H](C(C)C)C(=O)N1C (stereo partly drawn) [Compound E, 3-[(furan-3-yl)methoxy]cyclosporin]	6.06	< 4.70	> 20000	< 4.70	6.60	600
C/C=C/C[C@@H](C)[C@@H](O)[C@H]1C(=O)N[C@@H](CC)C(=O)N(C)C(OCc2ccco2)C(=O)N(C)[C@@H](CC(C)C)C(=O)N[C@@H](C(C)C)C(=O)N(C)[C@@H](CC(C)C)C(=O)N[C@@H](C)C(=O)N[C@H](C)C(=O)N(C)[C@@H](CC(C)C)C(=O)N(C)[C@@H](CC(C)C)C(=O)N(C)[C@@H](C(C)C)C(=O)N1C (stereo partly drawn) [D, 3-[(furan-2-yl)methoxy]cyclosporin]	6.24	4.74	> 20000	< 4.70	6.54	570
C/C=C/C[C@@H](C)[C@@H](O)[C@H]1C(=O)N[C@@H](CC)C(=O)N(C)C(OCc2ccc(OC(F)(F)F)cc2)C(=O)N(C)[C@@H](CC(C)C)C(=O)N[C@@H](C(C)C)C(=O)N(C)[C@@H](CC(C)C)C(=O)N[C@@H](C)C(=O)N[C@H](C)C(=O)N(C)[C@@H](CC(C)C)C(=O)N(C)[C@@H](CC(C)C)C(=O)N(C)[C@@H](C(C)C)C(=O)N1C (stereo partly drawn) [F, 3-[(4-trifluoromethoxy)benzyloxy]cyclosporin]	< 4.70	< 4.70	> 20000	< 4.70	5.93	5420
C/C=C/C[C@@H](C)[C@@H](O)[C@H]1C(=O)N[C@@H](CC)C(=O)N(C)C(OCc2ccsc2)C(=O)N(C)[C@@H](CC(C)C)C(=O)N[C@@H](C(C)C)C(=O)N(C)[C@@H](CC(C)C)C(=O)N[C@@H](C)C(=O)N[C@H](C)C(=O)N(C)[C@@H](CC(C)C)C(=O)N(C)[C@@H](CC(C)C)C(=O)N(C)[C@@H](C(C)C)C(=O)N1C (stereo partly drawn) [G, 3-[(thiophene-3-yl)methoxy]cyclosporin]	5.52	< 4.70	> 20000	< 4.70	6.46	400
